Source: patent US20030104030A1, “Stent for blood vessel and material for stent for blood vessel” (priority 2002, published 2003)

Assay: amount of tranilast in the stents, measured by high performance liquid chromatography
Type: physicochemical
Settings: impregnation in stent with supercritical CO2, 40 to 140° C.
Experimental: In the experimental example 2, a plural number of luminal stents, formed of plural biodegradable polymer material, in particular plural fibers of biodegradable polymer, in which the drug was impregnated as the pressure and the temperature of CO2 were varied, were formed, and measurements were made of the amount of the drug for each of these stents.
Of the stents, obtained in Examples 14 to 25, the amount of tranilast was measured using a high performance liquid chromatography.

- thermal decomposition of drug during impregnation: without undergoing thermal decomposition
Structure (SMILES): COc1ccc(C=CC(=O)Nc2ccccc2C(=O)O)cc1OC [tranilast, N-(3,4-dimethoxycinnamoyl) anthranilic acid]
